Test results: ChEMBL document CHEMBL1201862, “PubChem BioAssay data set” (2004)
The source made the active and inactive calls.

Legend:
[1] = biological target: T1, Nucleotide-binding oligomerization domain-containing protein 1 (Homo sapiens, UniProt Q9Y239); experiment: NOD1 signaling inhibitors, SAR follow-up, revised (AID 2333); assay type: functional
T1 sequence (Q9Y239 whole entry): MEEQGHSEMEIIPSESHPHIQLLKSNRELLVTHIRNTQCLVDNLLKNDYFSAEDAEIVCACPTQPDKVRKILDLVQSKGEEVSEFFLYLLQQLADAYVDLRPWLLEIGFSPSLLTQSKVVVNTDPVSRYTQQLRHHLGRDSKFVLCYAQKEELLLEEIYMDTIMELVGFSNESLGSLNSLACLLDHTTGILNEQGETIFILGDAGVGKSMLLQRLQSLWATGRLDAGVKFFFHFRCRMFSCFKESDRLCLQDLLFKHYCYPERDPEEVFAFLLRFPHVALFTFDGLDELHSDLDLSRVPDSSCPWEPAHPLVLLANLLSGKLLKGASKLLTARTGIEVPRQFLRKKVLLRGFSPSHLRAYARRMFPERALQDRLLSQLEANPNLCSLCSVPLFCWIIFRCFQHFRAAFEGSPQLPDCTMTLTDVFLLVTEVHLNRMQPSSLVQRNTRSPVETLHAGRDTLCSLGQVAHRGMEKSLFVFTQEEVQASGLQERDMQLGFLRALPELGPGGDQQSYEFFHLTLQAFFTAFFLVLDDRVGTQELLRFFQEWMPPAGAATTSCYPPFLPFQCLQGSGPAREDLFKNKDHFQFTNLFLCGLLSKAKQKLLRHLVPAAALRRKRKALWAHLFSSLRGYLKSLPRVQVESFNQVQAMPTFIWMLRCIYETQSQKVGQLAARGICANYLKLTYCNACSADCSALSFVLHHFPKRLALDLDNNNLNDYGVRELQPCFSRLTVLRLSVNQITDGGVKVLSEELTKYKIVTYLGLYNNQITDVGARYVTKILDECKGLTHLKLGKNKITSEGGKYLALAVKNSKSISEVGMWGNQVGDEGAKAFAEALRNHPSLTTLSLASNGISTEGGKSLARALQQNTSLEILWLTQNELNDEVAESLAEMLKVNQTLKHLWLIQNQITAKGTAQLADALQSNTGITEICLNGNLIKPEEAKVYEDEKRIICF

[2] = tested on: HEK293; experiment: cells; assay type: functional, cell-based; conditions: Homo sapiens
[3] = tested on: HEK293; experiment: cells; assay type: functional, cell-based; conditions: Homo sapiens; remark: listed apart in the source
[4] = biological target: T2, Nucleotide-binding oligomerization domain-containing protein 2 (Homo sapiens, UniProt Q9HC29); experiment: PubChem AID 2334; assay type: functional
T2 sequence (Q9HC29 whole entry, the tested form may be a part): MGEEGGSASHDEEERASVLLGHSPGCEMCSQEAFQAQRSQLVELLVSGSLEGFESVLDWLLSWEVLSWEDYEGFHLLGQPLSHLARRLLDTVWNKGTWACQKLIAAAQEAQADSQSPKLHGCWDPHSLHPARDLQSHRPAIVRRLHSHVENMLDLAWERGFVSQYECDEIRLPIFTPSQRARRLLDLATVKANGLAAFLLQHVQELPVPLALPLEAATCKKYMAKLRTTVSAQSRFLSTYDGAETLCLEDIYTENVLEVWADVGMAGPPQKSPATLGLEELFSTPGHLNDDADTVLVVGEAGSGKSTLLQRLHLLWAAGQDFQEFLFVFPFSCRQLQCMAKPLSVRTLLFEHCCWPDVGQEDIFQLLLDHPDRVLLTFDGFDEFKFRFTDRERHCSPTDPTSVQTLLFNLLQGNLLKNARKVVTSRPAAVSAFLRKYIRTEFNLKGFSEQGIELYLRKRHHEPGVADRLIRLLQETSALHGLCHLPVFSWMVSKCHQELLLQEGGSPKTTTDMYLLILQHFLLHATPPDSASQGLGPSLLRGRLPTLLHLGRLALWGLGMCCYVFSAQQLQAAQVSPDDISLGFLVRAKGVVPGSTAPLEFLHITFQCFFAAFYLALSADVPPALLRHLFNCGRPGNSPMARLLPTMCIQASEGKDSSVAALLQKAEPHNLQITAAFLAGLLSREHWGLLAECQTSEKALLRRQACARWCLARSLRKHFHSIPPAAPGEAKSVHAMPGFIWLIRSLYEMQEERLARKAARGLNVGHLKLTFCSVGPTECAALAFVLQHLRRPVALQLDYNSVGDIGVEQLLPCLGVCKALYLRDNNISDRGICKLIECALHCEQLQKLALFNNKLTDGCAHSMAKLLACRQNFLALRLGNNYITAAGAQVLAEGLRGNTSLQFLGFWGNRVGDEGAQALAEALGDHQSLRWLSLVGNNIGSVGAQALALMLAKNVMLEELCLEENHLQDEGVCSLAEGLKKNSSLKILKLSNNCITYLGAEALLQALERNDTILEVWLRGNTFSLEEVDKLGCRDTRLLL

[5] = tested on: HEK293; experiment: NOD2 signaling inhibitors in MDP-stimulated cells, cell-based, uHTS, luminescence (AID 2001); assay type: functional; conditions: Homo sapiens
[6] = tested on: HEK293; experiment: NOD1 signaling inhibitors, primary screen, cell-based, luminescence, uHTS (AID 1578); assay type: functional; conditions: Homo sapiens
[7] = tested on: HEK293; experiment: cells; conditions: Homo sapiens
[8] = biological target: T2, Nucleotide-binding oligomerization domain-containing protein 2; experiment: NOD2 signaling inhibitors, cell-based, luminescence, uHTS, HEK293 (AID 1566); assay type: functional
[9] = tested on: HEK293; experiment: cells; assay type: functional, cell-based; conditions: Homo sapiens; remark: listed apart in the source
[10] = biological target: Tumor necrosis factor (Homo sapiens, UniProt P01375); experiment: TNFa-triggered NF-kB activation inhibitors, SAR follow-up, cell-based, revised (AID 2337); assay type: functional
Chain of Tumor necrosis factor (P01375 whole entry): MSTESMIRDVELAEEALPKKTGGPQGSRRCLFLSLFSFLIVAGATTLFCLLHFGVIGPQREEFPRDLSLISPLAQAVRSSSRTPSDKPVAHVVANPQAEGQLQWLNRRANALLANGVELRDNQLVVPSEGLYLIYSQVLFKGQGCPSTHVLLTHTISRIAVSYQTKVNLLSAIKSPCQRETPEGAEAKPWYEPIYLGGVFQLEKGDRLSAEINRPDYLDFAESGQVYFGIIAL

[11] = biological target: Cytochrome P450 2D6 (Homo sapiens, UniProt P10635);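 note: CYP2D6 member of a cytochrome P450 panel assay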
Chain of Cytochrome P450 2D6 (P10635 whole entry): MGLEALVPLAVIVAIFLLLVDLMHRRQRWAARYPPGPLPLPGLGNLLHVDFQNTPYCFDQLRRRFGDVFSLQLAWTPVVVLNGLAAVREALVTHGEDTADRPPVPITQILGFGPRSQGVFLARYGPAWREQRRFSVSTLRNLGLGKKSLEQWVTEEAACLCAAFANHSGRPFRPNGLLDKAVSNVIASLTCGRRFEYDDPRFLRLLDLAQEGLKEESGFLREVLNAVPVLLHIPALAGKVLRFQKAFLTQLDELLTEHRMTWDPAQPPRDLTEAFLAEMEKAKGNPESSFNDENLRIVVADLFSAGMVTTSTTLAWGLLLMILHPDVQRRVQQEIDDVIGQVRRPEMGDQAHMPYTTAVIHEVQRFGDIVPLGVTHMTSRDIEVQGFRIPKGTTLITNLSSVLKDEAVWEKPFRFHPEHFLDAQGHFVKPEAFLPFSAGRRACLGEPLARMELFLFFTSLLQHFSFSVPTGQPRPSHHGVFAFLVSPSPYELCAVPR

[12] = biological target: Cytochrome P450 2C9 (Homo sapiens, UniProt P11712)
Chain of Cytochrome P450 2C9 (P11712 whole entry): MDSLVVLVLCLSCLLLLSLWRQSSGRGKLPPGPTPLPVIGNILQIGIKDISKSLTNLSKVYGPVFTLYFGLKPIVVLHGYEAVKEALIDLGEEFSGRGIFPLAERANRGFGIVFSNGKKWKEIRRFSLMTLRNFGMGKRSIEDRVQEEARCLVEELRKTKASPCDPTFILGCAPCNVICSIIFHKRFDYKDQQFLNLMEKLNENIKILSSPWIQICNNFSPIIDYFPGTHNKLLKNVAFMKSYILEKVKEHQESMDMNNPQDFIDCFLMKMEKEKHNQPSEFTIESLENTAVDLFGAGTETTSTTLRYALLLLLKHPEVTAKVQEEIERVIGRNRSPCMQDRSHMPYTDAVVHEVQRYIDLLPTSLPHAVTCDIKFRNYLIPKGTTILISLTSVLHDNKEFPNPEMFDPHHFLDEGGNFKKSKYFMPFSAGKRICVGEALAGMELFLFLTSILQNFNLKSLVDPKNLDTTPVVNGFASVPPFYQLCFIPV

[13] = biological target: CAAX prenyl protease 2 (Saccharomyces cerevisiae S288c, UniProt Q03530); assay type: biochemical
Chain of CAAX prenyl protease 2 (Q03530 whole entry): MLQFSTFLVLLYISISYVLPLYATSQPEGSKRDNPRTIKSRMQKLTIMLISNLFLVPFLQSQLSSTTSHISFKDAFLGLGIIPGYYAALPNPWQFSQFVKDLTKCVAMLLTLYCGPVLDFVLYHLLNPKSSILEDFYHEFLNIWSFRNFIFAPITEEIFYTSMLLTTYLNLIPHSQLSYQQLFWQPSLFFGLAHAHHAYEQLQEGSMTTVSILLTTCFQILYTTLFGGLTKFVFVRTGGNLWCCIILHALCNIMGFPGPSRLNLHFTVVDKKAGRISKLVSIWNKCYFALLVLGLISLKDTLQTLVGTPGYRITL

[14] = biological target: CAAX prenyl protease 1 (Saccharomyces cerevisiae S288c, UniProt P47154); experiment: Ste24 protease inhibitors, dose response, biochemical, S. cerevisiae, plate reader, cherry-pick (AID 488815)
Chain of CAAX prenyl protease 1 (P47154 whole entry): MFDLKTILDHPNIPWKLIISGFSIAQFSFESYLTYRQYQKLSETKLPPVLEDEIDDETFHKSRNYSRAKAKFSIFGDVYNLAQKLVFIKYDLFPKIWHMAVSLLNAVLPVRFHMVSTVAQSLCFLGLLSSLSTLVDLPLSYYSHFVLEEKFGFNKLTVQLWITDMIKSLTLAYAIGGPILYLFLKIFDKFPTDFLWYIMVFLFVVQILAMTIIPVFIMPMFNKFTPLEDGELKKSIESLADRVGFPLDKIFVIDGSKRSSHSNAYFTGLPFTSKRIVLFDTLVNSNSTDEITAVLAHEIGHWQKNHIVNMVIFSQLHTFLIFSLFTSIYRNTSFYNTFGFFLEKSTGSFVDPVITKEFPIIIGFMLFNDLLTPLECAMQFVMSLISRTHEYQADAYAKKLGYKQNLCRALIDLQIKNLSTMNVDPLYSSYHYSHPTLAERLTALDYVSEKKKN

Question: With `COc1ccc(NC(C)=O)cc1S(=O)(=O)Nc1ccc(OCc2ccccc2)cc1` as the compound, how does the IC50 [1] read?
Answer: 12.7 µM (active)

Question: And the IC50 [2]?
Answer: > 20 µM (inactive)

Question: What about the IC50 [3] of the same compound?
Answer: > 20 µM (inactive)

Question: And the IC50 [4]?
Answer: 16.6 µM (active)

Question: And the IC50 [5]?
Answer: > 20 µM (inactive)

Question: And the EC50 [6]?
Answer: 13.7 µM (active)

Question: And the IC50 [7]?
Answer: > 20 µM (inactive)

Question: And the EC50 [8]?
Answer: 12.3 µM (active)

Question: And the IC50 [9]?
Answer: > 20 µM (inactive)

Question: What about the IC50 [10] of the same compound?
Answer: 18 µM (active)

Question: With `O=[N+]([O-])c1ccc(N2CCOCC2)nc1` as the compound, how does the AC50 [11] read?
Answer: inconclusive

Question: And the AC50 [12]?
Answer: 7.94 µM (inconclusive)

Question: Which AC50 [13] does the source give for `Cc1ccc2c(C)c(C(=O)N(Cc3ccc(F)cc3)C3CCS(=O)(=O)C3)oc2c1` (centres undefined) here?
Answer: > 100 µM (inactive)

Question: What about the AC50 [14] of the same compound?
Answer: 26.5 µM (active)
